Activity calls are given as the source filed them. No cut-off for these calls is given here.
Columns and labels:
MCF7 [1] = assay: Antiproliferative activity against estrogen receptor positive Homo sapiens (human) MCF7 cells in steroid free medium after 48 hr by SRB assay in presence of ER antagonist 4-OHT; type: functional, cell-based
MCF7 [2] = assay: Antiproliferative activity against estrogen receptor positive Homo sapiens (human) MCF7 cells in steroid free medium after 48 hr by SRB assay; type: functional, cell-based
MCF7 [3] = assay: Antiproliferative activity against estrogen receptor positive Homo sapiens (human) MCF7 cells in complete medium after 48 hr by SRB assay; type: functional, cell-based
MDA-MB-231 [4] = assay: Antiproliferative activity against estrogen receptor negative Homo sapiens (human) MDA-MB-231 cells after 48 hr by SRB assay; type: functional, cell-based
MCF7 [5] = assay: Antiproliferative activity against estrogen receptor positive Homo sapiens (human) MCF7 cells after 48 hr by SRB assay; type: functional, cell-based
MDA-MB-231 [6] = assay: Antiproliferative activity against estrogen receptor negative Homo sapiens (human) MDA-MB-231 cells at 0.05 uM after 48 hr by SRB assay; type: functional, cell-based
MCF7 [7] = assay: Antiproliferative activity against estrogen receptor positive Homo sapiens (human) MCF7 cells at 0.05 uM after 48 hr by SRB assay; type: functional, cell-based
NCI-H460 = assay: Growth inhibition of Homo sapiens (human) NCI-H460 cells after 48 hr by [3H]-thymidine incorporation assay; type: functional
MDA-MB-231 [8] = assay: Growth inhibition of estrogen receptor negative Homo sapiens (human) MDA-MB-231 cells after 48 hr by [3H]-thymidine incorporation assay; type: functional
MCF7 [9] = assay: Growth inhibition of estrogen receptor positive Homo sapiens (human) MCF7 cells after 48 hr by [3H]-thymidine incorporation assay; type: functional

CC1(C)CCc2cc3c(=O)c4ccccc4oc3c(O)c2O1 [DIHYDRO-12-HYDROXY-2,2-DIMETHYL-2H,6H-PYRANO[3,2-B]XANTHEN-6-ONE]
Activity (MCF7 [1]): Active
Activity (MCF7 [2]): Dose-dependent effect
Activity (MCF7 [3]): Dose-dependent effect
Activity (MDA-MB-231 [4]): Dose-dependent effect
Activity (MCF7 [5]): Dose-dependent effect
Activity (MDA-MB-231 [6]): Active
Activity (MCF7 [7]): Active
GI50 (NCI-H460): 22 µM
GI50 (MDA-MB-231 [8]): 29 µM
GI50 (MCF7 [9]): 5.3 µM

CC(C)=CCOc1ccc2c(=O)c3ccccc3oc2c1OCC=C(C)C
GI50 (NCI-H460): 30.7 µM
GI50 (MDA-MB-231 [8]): 39 µM
GI50 (MCF7 [9]): 21.8 µM

CC(C)=CCOc1ccc2c(=O)c3ccccc3oc2c1O
Activity (MCF7 [2]): Dose-dependent effect
Activity (MCF7 [3]): Dose-dependent effect
Activity (MDA-MB-231 [4]): Dose-dependent effect
Activity (MCF7 [5]): Dose-dependent effect
Activity (MDA-MB-231 [6]): Active
Activity (MCF7 [7]): Active
GI50 (NCI-H460): 20.4 µM
GI50 (MDA-MB-231 [8]): 29.1 µM
GI50 (MCF7 [9]): 14.2 µM
